Drawing on ChEMBL document CHEMBL2311302, “Synthesis and evaluation of 5'-modified thymidines and 5-hydroxymethyl-2'-deoxyuridines as Mycobacterium tuberculosis thymidylate kinase inhibitors” (Bioorg Med Chem, 2013), this text covers Ki and inhibition for six molecules.

SMILES strings stand for the structures. The source made the active and inactive calls. The calls are words filed in the database; no cut-off is given here.

The target of assay [1] is T1, Thymidylate kinase (Mycobacterium tuberculosis, UniProt P9WKE1).
T1 sequence (P9WKE1 whole entry): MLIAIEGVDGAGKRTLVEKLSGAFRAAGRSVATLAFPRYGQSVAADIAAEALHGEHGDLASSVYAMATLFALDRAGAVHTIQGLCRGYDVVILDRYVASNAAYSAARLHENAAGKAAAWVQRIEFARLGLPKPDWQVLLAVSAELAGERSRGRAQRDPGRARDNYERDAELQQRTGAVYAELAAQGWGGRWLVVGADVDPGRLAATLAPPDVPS
Briefly: Inhibition of Mycobacterium tuberculosis thymidine monophosphate kinase by enzyme-coupling based spectrophotometric assay.

The target in assay [2] is T2, Thymidylate kinase (Mycobacterium tuberculosis) (UniProt P9WKE1).
T2 sequence (whole entry): T1 sequence (P9WKE1 whole entry)
Briefly: Inhibition of Mycobacterium tuberculosis thymidine monophosphate kinase at 2.6 mM by enzyme-coupling based spectrophotometric assay.

Assay [3] has as its target T2, Thymidylate kinase (Mycobacterium tuberculosis). Briefly: Inhibition of Mycobacterium tuberculosis thymidine monophosphate kinase at 2.4 mM by enzyme-coupling based spectrophotometric assay.

Turning to `Cc1cn([C@H]2C[C@H](O)[C@@H](CCC#N)O2)c(=O)[nH]c1=O`, the affinity in assay [1], expressed as Ki, was 48 µM.

Take `CNS(=O)(=O)CC[C@H]1O[C@@H](n2cc(C)c(=O)[nH]c2=O)C[C@@H]1O`: affinity in assay [1] was put at a Ki of 240 µM.

For `N#CCC[C@H]1O[C@@H](n2cc(CO)c(=O)[nH]c2=O)C[C@@H]1O`, the inhibition entry in assay [2] was “inactive”.

On to `O=c1[nH]c(=O)n([C@H]2C[C@H](O)[C@@H](CCc3nnn[nH]3)O2)cc1CO`, for which the inhibition entry in assay [3] was “inactive”.

On to `Cc1cn([C@H]2C[C@H](O)[C@@H](CCS(C)(=O)=O)O2)c(=O)[nH]c1=O`, for which the affinity in assay [1] corresponds to a Ki of 340 µM.

With `Cc1cn([C@H]2C[C@H](O)[C@@H](CCc3nnn[nH]3)O2)c(=O)[nH]c1=O`, the Ki (commonly the dissociation constant of the complex between target and ligand, obtained from inhibition or displacement) in assay [1] was 70 µM.
